For 55 compounds, IC50 results are on record in patent US20120328569A1, “INHIBITORS OF HEPATITIS C VIRUS NS5B POLYMERASE” (priority 2010, published 2012).

The experiment concerns HCV genotype 1b replicon. The experiment is described as follows: HCV replicon assay, cell ELISA with antibody to replicon-encoded NS3/4A (genotype 1b replicon). Type of experiment: cell-based, hepatitis C virus. The following applies: Hepatitis C virus, 96 h, read-out: Replicon 1b IC50 (nM), HCV genotype 1b replicon cells, 96 hours incubation, NS3/4A ELISA readout. The gist of the method:
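Replicon-harbouring cells carrying neomycin phosphotransferase were incubated 96 h with a compound dilution series without G418. Replication was quantified indirectly by a cell ELISA detecting replicon-encoded NS3/4A. IC50 values were calculated relative to DMSO control with a four-parameter fit.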
Turning to `CNC(=O)c1c(-c2ccc(F)cc2)oc2cc(N(C)S(C)(=O)=O)c(-c3ccc(OC(F)(F)F)c(-c4nc5ccccc5o4)c3)cc12` [Example 179], the IC50 came to 7.2 nM.

In the case of `CNC(=O)c1c(-c2ccc(F)cc2)oc2cc(N(C)S(C)(=O)=O)c(-c3cc(-c4nc5ccccc5o4)c(OC)cc3F)cc12` [Example 180], the IC50 came out at 5 nM.

With `CNC(=O)c1c(-c2ccc(F)cc2)oc2cc(N(C)S(C)(=O)=O)c(-c3cc(F)c(OC)c(-c4nc5ccccc5o4)c3)cc12` [Example 181], the IC50 was found to be 5.7 nM.

With `CNC(=O)c1c(-c2ccc(F)cc2)oc2cc(N(C)S(C)(=O)=O)c(-c3cc(OC)c(OC)c(-c4nc5ccccc5o4)c3)cc12` [Example 182], the IC50 worked out at 2.3 nM.

As to `CNC(=O)c1c(-c2ccc(F)cc2)oc2cc(N(C)S(C)(=O)=O)c(-c3ccc(OC)c(-c4nc5ccccc5o4)c3)cc12` [Example 183], the IC50 is 1.5 nM.

For the compound `CNC(=O)c1c(-c2ccc(F)cc2)oc2cc(N(C)S(C)(=O)=O)c(-c3ccc(OC)c(-c4nc5ccc(F)cc5o4)c3)cc12` [Example 185], the IC50 stood at 2.2 nM.

As to `CNC(=O)c1c(-c2ccc(F)cc2)oc2cc(N(C)S(C)(=O)=O)c(-c3ccc(OC)c(-c4nc5cccc(F)c5o4)c3)cc12` [Example 186], the IC50 was found to be 2 nM.

For the compound `CNC(=O)c1c(-c2ccc(F)cc2)oc2cc(N(C)S(C)(=O)=O)c(-c3ccc(OC)c(-c4nc5cc(Cl)ccc5o4)c3)cc12` [Example 187], the IC50 is 2.6 nM.

Consider `CNC(=O)c1c(-c2ccc(F)cc2)oc2cc(N(C)S(C)(=O)=O)c(-c3ccc(OC)c(-c4nc5ccc(Cl)cc5o4)c3)cc12` [Example 188], for which the IC50 turned out to be 5.1 nM.

With `CNC(=O)c1c(-c2ccc(F)cc2)oc2cc(N(C)S(C)(=O)=O)c(-c3ccc(OC)c(-c4nc5cccc(Cl)c5o4)c3)cc12` [Example 189], the IC50 worked out at 1.9 nM.

For `CNC(=O)c1c(-c2ccc(F)cc2)oc2cc(N(C)S(C)(=O)=O)c(-c3ccc(OC)c(-c4nc5c(C)cccc5o4)c3)cc12` [Example 190], the IC50 was found to be 2.2 nM.

Consider `CNC(=O)c1c(-c2ccc(F)cc2)oc2cc(N(C)S(C)(=O)=O)c(-c3ccc(OC)c(-c4nc5ccc(C)cc5o4)c3)cc12` [Example 191], for which the IC50 came out at 4.1 nM.

As to `CNC(=O)c1c(-c2ccc(F)cc2)oc2cc(N(C)S(C)(=O)=O)c(-c3ccc(OC)c(-c4nc5cccc(C)c5o4)c3)cc12` [Example 192], the IC50 was 1.9 nM.

Consider `CNC(=O)c1c(-c2ccc(F)cc2)oc2cc(N(C)S(C)(=O)=O)c(-c3ccc(OC(C)C)c(-c4nc5ccccc5o4)c3)cc12` [Example 193], for which the IC50 was found to be 11.6 nM.

Consider `CNC(=O)c1c(-c2ccc(F)cc2)oc2cc(N(C)S(C)(=O)=O)c(-c3cc(F)c(F)c(-c4nc5ccccc5o4)c3)cc12` [Example 194], for which the IC50 was 4.2 nM.

As to `CNC(=O)c1c(-c2ccc(F)cc2)oc2cc(N(C)S(C)(=O)=O)c(-c3cc(F)cc(-c4nc5ncccc5o4)c3)cc12` [Example 198], the IC50 came to 1.4 nM.

As for `CNC(=O)c1c(-c2ccc(F)cc2)oc2cc(N(C)S(C)(=O)=O)c(-c3cc(F)cc(-c4nc5ncc(Cl)cc5o4)c3)cc12` [Example 199], the IC50 amounted to 2.9 nM.

`CNC(=O)c1c(-c2ccc(F)cc2)oc2cc(N(C)S(C)(=O)=O)c(-c3ccc(F)c(-c4nc5ncccc5o4)c3)cc12` [Example 200]: the IC50 turned out to be 1.6 nM.

In the case of `CNC(=O)c1c(-c2ccc(F)cc2)oc2cc(N(C)S(C)(=O)=O)c(-c3cccc(-c4nc5ncc(F)cc5o4)c3)cc12` [Example 201], the IC50 came out at 1.7 nM.

Regarding `CNC(=O)c1c(-c2ccc(F)cc2)oc2cc(N(C)S(C)(=O)=O)c(-c3cccc(-c4nc5ncc(Cl)cc5o4)c3)cc12` [Example 202], the IC50 is 1 nM.

For the compound `CNC(=O)c1c(-c2ccc(F)cc2)oc2cc(N(C)S(C)(=O)=O)c(-c3cc(Cl)cc(-c4nc5ncccc5o4)c3)cc12` [Example 203], the IC50 is 2.4 nM.

Take `CNC(=O)c1c(-c2ccc(F)cc2)oc2cc(N(C)S(C)(=O)=O)c(-c3cc(-c4nc5ncccc5o4)ccc3Cl)cc12` [Example 204]: the IC50 is 4.5 nM.

`CNC(=O)c1c(-c2ccc(F)cc2)oc2cc(N(C)S(C)(=O)=O)c(-c3cccc(-c4nc5ncccc5o4)c3OC)cc12` [Example 205]: the IC50 stood at 11.9 nM.

For `CNC(=O)c1c(-c2ccc(F)cc2)oc2cc(N(C)S(C)(=O)=O)c(-c3ccc(OC(F)(F)F)c(-c4nc5ncccc5o4)c3)cc12` [Example 206], the IC50 amounted to 2.1 nM.

As for `CNC(=O)c1c(-c2ccc(F)cc2)oc2cc(N(C)S(C)(=O)=O)c(-c3cc(-c4nc5ncccc5o4)c(OC)cc3F)cc12` [Example 207], the IC50 was 2.4 nM.

Regarding `CNC(=O)c1c(-c2ccc(F)cc2)oc2cc(N(C)S(C)(=O)=O)c(-c3ccc(C)c(-c4nc5ncccc5o4)c3)cc12` [Example 208], the IC50 was found to be 1.8 nM.

For `CNC(=O)c1c(-c2ccc(F)cc2)oc2cc(N(C)S(C)(=O)=O)c(-c3cc(C#N)cc(-c4nc5ncccc5o4)c3)cc12` [Example 209], the IC50 was 5.5 nM.

In the case of `CNC(=O)c1c(-c2ccc(F)cc2)oc2cc(N(C)S(C)(=O)=O)c(-c3cc(C)cc(-c4nc5ncccc5o4)c3)cc12` [Example 210], the IC50 came to 1.9 nM.

As to `CNC(=O)c1c(-c2ccc(F)cc2)oc2cc(N(C)S(C)(=O)=O)c(-c3cccc(-c4nc5cnccc5o4)c3)cc12` [Example 211], the IC50 was 3.3 nM.

With `CNC(=O)c1c(-c2ccc(F)cc2)oc2cc(N(C)S(C)(=O)=O)c(-c3cc(F)cc(-c4nc5cnccc5o4)c3)cc12` [Example 212], the IC50 was found to be 2.6 nM.

As for `CNC(=O)c1c(-c2ccc(F)cc2)oc2cc(N(C)S(C)(=O)=O)c(-c3ccc(F)c(-c4nc5cnccc5o4)c3)cc12` [Example 213], the IC50 was determined as 2.5 nM.

Take `CNC(=O)c1c(-c2ccc(F)cc2)oc2cc(N(C)S(C)(=O)=O)c(-c3cc(-c4nc5cnccc5o4)ccc3F)cc12` [Example 214]: the IC50 stood at 6.3 nM.

With `CNC(=O)c1c(-c2ccc(F)cc2)oc2cc(N(C)S(C)(=O)=O)c(-c3ccc(Cl)c(-c4nc5cnccc5o4)c3)cc12` [Example 215], the IC50 was 2.1 nM.

`CNC(=O)c1c(-c2ccc(F)cc2)oc2cc(N(C)S(C)(=O)=O)c(-c3cccc(-c4nc5ccncc5o4)c3)cc12` [Example 216]: the IC50 came out at 8.2 nM.

Turning to `CNC(=O)c1c(-c2ccc(F)cc2)oc2cc(N(C)S(C)(=O)=O)c(-c3cccc(-c4nc5cccnc5o4)c3)cc12` [Example 217], the IC50 is 2.1 nM.

Consider `CNC(=O)c1c(-c2ccc(F)cc2)oc2cc(N(C)S(C)(=O)=O)c(-c3cc(F)cc(-c4nc5cccnc5o4)c3)cc12` [Example 218], for which the IC50 was 1.8 nM.

In the case of `CNC(=O)c1c(-c2ccc(F)cc2)oc2cc(N(C)S(C)(=O)=O)c(-c3cc(F)cc(-c4nc5cc(Cl)cnc5o4)c3)cc12` [Example 219], the IC50 stood at 3 nM.

Turning to `CNC(=O)c1c(-c2ccc(F)cc2)oc2cc(N(C)S(C)(=O)=O)c(-c3cc(F)cc(-c4nc5cc(F)cnc5o4)c3)cc12` [Example 220], the IC50 came out at 1.5 nM.

For the compound `CNC(=O)c1c(-c2ccc(F)cc2)oc2cc(N(C)S(C)(=O)=O)c(-c3ccc(F)c(-c4nc5cccnc5o4)c3)cc12` [Example 221], the IC50 stood at 1.7 nM.

On to `CNC(=O)c1c(-c2ccc(F)cc2)oc2cc(N(C)S(C)(=O)=O)c(-c3cc(-c4nc5cccnc5o4)ccc3F)cc12` [Example 222], for which the IC50 was found to be 3.5 nM.

Consider `CNC(=O)c1c(-c2ccc(F)cc2)oc2cc(N(C)S(C)(=O)=O)c(-c3cccc(-c4nc5cc(Cl)cnc5o4)c3)cc12` [Example 223], for which the IC50 came out at 10 nM.

For `CNC(=O)c1c(-c2ccc(F)cc2)oc2cc(N(C)S(C)(=O)=O)c(-c3cccc(-c4nc5cc(F)cnc5o4)c3)cc12` [Example 224], the IC50 came to 2.3 nM.

As for `CNC(=O)c1c(-c2ccc(F)cc2)oc2cc(N(C)S(C)(=O)=O)c(-c3ccc(OC)c(-c4nc5cccnc5o4)c3)cc12` [Example 225], the IC50 is 3.6 nM.

Take `CNC(=O)c1c(-c2ccc(F)cc2)oc2cc(N(C)S(C)(=O)=O)c(-c3ccc(OC)c(-c4nc5cc(Cl)cnc5o4)c3)cc12` [Example 226]: the IC50 stood at 4 nM.

As to `CNC(=O)c1c(-c2ccc(F)cc2)oc2cc(N(C)S(C)(=O)=O)c(-c3ccc(OC)c(-c4nc5cc(F)cnc5o4)c3)cc12` [Example 227], the IC50 amounted to 2.2 nM.

On to `CNC(=O)c1c(-c2ccc(F)cc2)oc2cc(N(C)S(C)(=O)=O)c(-c3ccc(Cl)c(-c4nc5cccnc5o4)c3)cc12` [Example 228], for which the IC50 was 3.2 nM.

For `CNC(=O)c1c(-c2ccc(F)cc2)oc2cc(N(C)S(C)(=O)=O)c(-c3cc(Cl)cc(-c4nc5cccnc5o4)c3)cc12` [Example 229], the IC50 was found to be 3.7 nM.

As for `CNC(=O)c1c(-c2ccc(F)cc2)oc2cc(N(C)S(C)(=O)=O)c(-c3cc(-c4nc5cccnc5o4)ccc3Cl)cc12` [Example 230], the IC50 came to 8.3 nM.

For the compound `CNC(=O)c1c(-c2ccc(F)cc2)oc2cc(N(C)S(C)(=O)=O)c(-c3ccc(OC(F)(F)F)c(-c4nc5cccnc5o4)c3)cc12` [Example 231], the IC50 is 6.6 nM.

In the case of `CNC(=O)c1c(-c2ccc(F)cc2)oc2cc(N(C)S(C)(=O)=O)c(-c3cc(F)c(OC)c(-c4nc5ncccc5o4)c3)cc12` [Example 232], the IC50 was determined as 2.4 nM.

As to `CNC(=O)c1c(-c2ccc(F)cc2)oc2cc(N(C)S(C)(=O)=O)c(-c3cc(F)c(OC)c(-c4nc5cccnc5o4)c3)cc12` [Example 233], the IC50 came out at 2.9 nM.

Regarding `CNC(=O)c1c(-c2ccc(F)cc2)oc2cc(N(C)S(C)(=O)=O)c(-c3cc(OC)c(OC)c(-c4nc5ncccc5o4)c3)cc12` [Example 234], the IC50 was 2.7 nM.

On to `CNC(=O)c1c(-c2ccc(F)cc2)oc2cc(N(C)S(C)(=O)=O)c(-c3cc(OC)c(OC)c(-c4nc5cccnc5o4)c3)cc12` [Example 235], for which the IC50 was found to be 4 nM.

With `CNC(=O)c1c(-c2ccc(F)cc2)oc2cc(N(C)S(C)(=O)=O)c(-c3ccc(OCCO)c(-c4nc5ncccc5o4)c3)cc12` [Example 237], the IC50 was determined as 2.6 nM.

Take `CNC(=O)c1c(-c2ccc(F)cc2)oc2cc(N(C)S(C)(=O)=O)c(-c3ccc(OC)c(-c4nc5ncccc5o4)c3)cc12` [Example 238]: the IC50 came out at 2.9 nM.
